Measurements from US5714491A, “Peptidyl derivatives as metalloproteinase inhibitors” (Celltech Therapeutics Limited, priority 1993, dated 1998).

Legend:
[1] = molecular target: T1, Gelatinase-72KD (Homo sapiens, UniProt P08253); experiment: Enzyme inhibition assay with fluorogenic peptide substrate, gelatinase-72KD; format: biochemical; details: true Ki from plot of Ki (app) vs. [S]
T1 sequence (P08253 110-660): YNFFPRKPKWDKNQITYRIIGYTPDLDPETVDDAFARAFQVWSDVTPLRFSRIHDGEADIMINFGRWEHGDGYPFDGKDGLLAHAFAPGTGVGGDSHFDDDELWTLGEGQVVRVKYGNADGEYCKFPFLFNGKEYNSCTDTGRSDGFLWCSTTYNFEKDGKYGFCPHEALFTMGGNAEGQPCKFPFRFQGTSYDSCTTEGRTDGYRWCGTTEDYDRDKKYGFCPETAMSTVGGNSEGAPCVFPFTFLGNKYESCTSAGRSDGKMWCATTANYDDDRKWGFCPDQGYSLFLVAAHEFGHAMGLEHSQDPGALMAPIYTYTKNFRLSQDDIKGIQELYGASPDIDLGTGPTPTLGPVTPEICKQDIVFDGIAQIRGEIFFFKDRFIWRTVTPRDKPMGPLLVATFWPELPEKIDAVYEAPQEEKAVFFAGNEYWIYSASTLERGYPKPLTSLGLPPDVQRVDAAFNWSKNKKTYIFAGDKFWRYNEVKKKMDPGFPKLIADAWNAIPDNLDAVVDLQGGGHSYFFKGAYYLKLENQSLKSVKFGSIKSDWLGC
Protocol: (§1) All enzyme assays to determine Ki values were performed using the peptide substrate Dnp-Pro-Leu-Gly-Leu-Trp-Ala-D-Arg-NH2. [M. Sharon Stock and Robert D. Gray, JBC 264, 4277-81, 1989]. The enzymes cleave at the Gly-Leu bond which can be followed fluorimetrically by measuring the increase in Trp fluorescence emission associated with the removal of the quenching dinitrophenol (Dnp) group.
(§2) Essentially, enzyme (e.g. gelatinase, stromelysin, collagenase) at 0.08-2 nM; a range of inhibitor concentrations (0.1-50×Ki) and substrate (approx. 20 μm) are incubated overnight in 0.1M Tris/HCI buffer, pH 7.5, containing 0.1M NaCl, 10 mM CaCl2 and 0.05%. Brij 35 at either room temperature or 37° C. depending on the enzyme. The reaction is stopped by adjusting the pH to 4 using 0.1M sodium acetate buffer and the fluorescence read at an excitation wavelength of 280 nm and emission wavelength of 346 nm.
(§3) Ki values can be established using the equation for tight-binding inhibition: [formula] where VO is the initial rate of reaction in the absence of inhibitor, Vi is the initial rate in the presence of inhibitor, [E] is the total enzyme concentration and [I] the total inhibitor concentration in the reaction mixture.
(§4) For stromelysin and collagenasa, Ki (app) was assumed to approximate to the true Ki as [S]<<Km for the substrate hydrolysis. For gelatinase the Ki was determined by performing the analyses at several substrate concentrations. A plot of Ki (app) vs. [S] then gave the true Ki as the value of the y-axis intercept.

[2] = molecular target: Collagenase; experiment: Enzyme inhibition assay with fluorogenic peptide substrate, collagenase; format: biochemical; details: Ki (app) assumed to approximate true Ki
Protocol: as §1, §2, §3, §4

[3] = molecular target: Stromelysin-1 (Homo sapiens, UniProt P08254); experiment: Enzyme inhibition assay with fluorogenic peptide substrate, stromelysin-1; format: biochemical; details: Ki (app) assumed to approximate true Ki
Sequence of Stromelysin-1 (P08254 100-477, species assumed): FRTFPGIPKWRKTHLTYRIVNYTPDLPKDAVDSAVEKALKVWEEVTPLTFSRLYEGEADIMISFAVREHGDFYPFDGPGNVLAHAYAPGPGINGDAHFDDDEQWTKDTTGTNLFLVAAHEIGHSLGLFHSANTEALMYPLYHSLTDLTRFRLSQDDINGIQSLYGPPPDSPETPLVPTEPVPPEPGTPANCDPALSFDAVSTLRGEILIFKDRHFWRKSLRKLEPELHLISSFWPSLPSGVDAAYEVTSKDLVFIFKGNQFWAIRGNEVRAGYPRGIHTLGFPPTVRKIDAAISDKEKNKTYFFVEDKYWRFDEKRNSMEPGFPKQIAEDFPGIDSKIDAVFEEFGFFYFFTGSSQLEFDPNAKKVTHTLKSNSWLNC
Protocol: as §1, §2, §3, §4

[4] = molecular target: T2, gelatinase A (72K form) (Homo sapiens, UniProt P08253); experiment: Mouse pleural cavity assay (oral activity); format: in vivo; details: administered orally, around 25 μm/Kg
T2 sequence (P08253 110-660): T1 sequence (P08253 110-660)
Protocol: The oral activity of the compounds according to the invention may be determined using the mouse pleural cavity assay described below. This assay measures the ability of compounds of the invention when adminstered orally to inhibit a subsequent inoculation of gelatinase into the mouse pleural cavity.
A 2 ml solution of the test compound (for example around 25 μm/Kg) in an appropriate solvent (e.g. 50% polyethylene glycol (PG)) plus a variable proportion of dimethyl sulphoxide (DMSO) (if required) is administered orally. After an interval of up to 24 hrs, 0.4 ml of a mixture of an equal volume (2.2 ml) of the enzyme gelatinase A (72K form at a concentration of 20 nM) and radiolabelled [^14 C]-gelatin (at an approximate concentration of 10 μM i.e. 500 times molar excess) is injected into the pleural cavity and maintained at […]. […] The resulting TCA precipitate is then separated by centrifugation and radioactivity in each supernatant measured by scintillation counting. Results are expressed as a % inhibition of enzyme activity calculated by comparing the radioactivity measured for each test compound with a control value obtained by performing the same assay in the absence of a gelatinase inhibitor. […]

Row | SMILES | Ki [1] [nM] | Ki [2] [nM] | Ki [3] [nM] | % inhibition of enzyme activity [4] [%]
1 | CNC(=O)[C@H](NC(=O)[C@H](CCCc1ccc(Cl)cc1)CC(=O)NO)C(C)(C)SC [Example 3a), [4-(N-Hydroxyamino)-2(R)-[3-(4-chlorophenyl)propyl]succinyl]-L-[S-(methyl)penicillamine]-N-methylamide] | 0.005 | 26.3 | 5.3 | –
2 | CC(C)(S)[C@@H](NC(=O)[C@H](CCCc1ccc(Cl)cc1)CC(=O)NO)C(N)=O [Example 3b), [4-(N-Hydroxyamino)-2(R)-[3-(4-chlorophenyl)propyl]-1-succinyl]-L-penicillamine amide] | 0.027 | 122 | 3.6 | 100
3 | CNC(=O)[C@H](NC(=O)[C@H](CCCc1ccc(Cl)cc1)CC(=O)NO)C(C)(C)S(C)(=O)=O [Example 4, {4-(N-Hydroxyamino)-2(R)-[3-(4-chlorophenyl)propyl]succinyl}-L-[S-(methyl)penicillaminesulphone]-N-methylamide] | 0.005 | 20.7 | 5.92 | –
